Reference: patent US20110160266A1, “Novel Anti-Arrhythmia Agent” (THE UAB RESEARCH FOUNDATION, priority 2008, published 2011)
“Also recorded” adds a separate entry of the source. Counter-ions that a name gives are not always drawn.

Columns and labels:
rat left atria [1] = assay: tissue or blood; settings: 5 min, read-out: IC50 for suppression of triggered ectopic contractions induced by ATX II
rat left atria [2] = assay: Suppression of STA induced by 2-APB plus BayK 8644 or isoproterenol in left atria
Experimental: 3 Hz-paced left atria (n=9 per group) were superfused (i) in Krebs-Henseleit alone or (ii) they were treated with 20 μM 2-APB for 10 min, (iii) with 300 nM BayK 8644 for 10 min and with 20 μM 2-APB for 10 min, or (iv) they were treated with 300 nM BayK 8644 and 20 μM 2-APB for 10 min, then with 70 μM zatebradine (3-[3-[[2-(3,4-Dimethoxyphenyl)ethyl]methyl amino]propyl]-1,3,4,5-tetrahydro-7,8,-dimethoxy-2H-3-benzazepin-2-one hydrochloride) for 10 min (Baruscotti et al., 2005). Pacing was interrupted at these times and rates of SMA were recorded.
Left atria (n=9) were paced at 0.1 Hz, treated with 300 nM BayK 8644 for 5 min, then with 20 μM 2-APB for 10 min, and the pacing stimulus was stopped. These preparations then were incubated with six increasing concentrations of zatebradine (10-100 μM) for 3-5 min at each concentration, and rates of SMA were recorded. Untreated right atria (n=9) also were titrated with zatebradine and its effect on contraction frequency was recorded.
To test whether zatebradine affects left atrial force of contraction, two groups of left atria (n=9 per group) were paced at 3 Hz and treated with 300 nM BayK 8644. Five minutes later one group was incubated with six increasing concentrations of zatebradine (10-100 μM) for 3-5 min at each concentration, and forces of contraction were recorded. A second group was treated with BayK 8644 but not zatebradine, and forces of contraction were recorded at corresponding times.
To test whether zatebradine affects the SMA occurring in the presence of 2-APB and isoproterenol, left atria (n=7) were paced at 0.1 Hz, treated with 30 nM isoproterenol for 5 min, then with 20 μM 2-APB for 10 min, and the pacing stimulus was stopped. Rates of SMA were recorded, these left atria were exposed to 70 μM zatebradine for 10 min, and rates of SMA were recorded again. A group of right atria (n=7) also were exposed to 30 nM isoproterenol for 5 min and then to 70 μM zatebradine for 10 min. Right atrial contraction frequency was recorded at these two times.
To test whether ZD-7288, an If inhibitor structurally unrelated to zatebradine (Baruscotti et al., 2005; Sanders et al., 2006) affects the SMA occurring in the presence of 2-APB and BayK 8644, rat left atria (n=7) were treated with 300 nM BayK 8644 for 5 min, then with 20 μM 2-APB for 10 min, and the rates of ectopic activity were recorded. These atria then were incubated with six increasing concentrations of ZD-7288 (10-100 μM) for 3-5 min at each concentration, and the rates of SMA were recorded. Right atria (n=7) were titrated similarly with ZD-7288 (0-100 μM) and the change in their contraction frequency was recorded.
In these experiments, a 2-APB model system was used to simulate tachycardic abnormal automaticity. Specifically, superfused left atria were treated sequentially with 300 nM BayK 8644, an activator of voltage-dependent calcium entry, which loads myocytes with calcium, and then with 2-APB (20 μM) to activate the putative myocyte system for abnormal automaticity. […] SKF-96365 (10 μM) was added to the superfusate. SKF-96365 reversed STA in these left atria within 2-3 min and the muscle became quiescent in the absence of pacing (FIG. 34, “Rest”).
Additional experiments determined the concentration-dependence of SKF-96365 inhibition of STA. These experiments were performed as described above except that various concentrations of SKF-96365 were added to the left atrial superfusate (about 10-70 μM). Exposing left atria to various concentrations of SKF-96365 reversed STA (FIG. 35).

rat left atria [3] = test system: rat left atria
rat left atria [4] = assay: Chaotic, fibrillation-like activity in left atria at 37° C., paced at 6 Hz
Experimental: In this example, it was evaluated whether SKF-96365 could reverse chaotic, fibrillation-like activity. In these experiments, left atria were superfused at 37° C., paced at 6 Hz (a physiological rate under these conditions), exposed to 300 nM BayK 8644 to load calcium and then to 20 μM 2-APB to induce tachycardic activity.

rat left atria [5] = assay: Reversal or prevention of 2-APB-induced SMA in superfused rat left atria
Experimental: (A) Titration curve of ranolazine reversal of SMA in superfused left atrial appendage. Superfused appendages (n=7) were treated with 2-APB and following the appearance of SMA they were titrated with increasing concentrations of ranolazine for 3-5 min at any concentration. Rates of SMA in the absence of pacing were recorded. (B) Typical raw mechanical data for an appendage treated with 2-APB and then with 0, 10 or 80 μM ranolazine. All data are in the absence of pacing. […]
To test whether an anion transport inhibitor affected SMA, atria (n=7) were paced at 0.1 Hz in KH and exposed to 15 μM 2-APB. Following the appearance of SMA, they were titrated with 100 to 400 μM DIDS for 3 to 5 min at each concentration. Whether SMA occurred at the end of each titration period was recorded.
In these experiments, a 2-APB model system was used to simulate abnormal automaticity. Specifically, paced (0.1 Hz) superfused left atria were treated with 2-APB (20 μM) and the pacing stimulus was stopped after the appearance of SMA. SKF-96365 (25 μM) was then added to the superfusate and the effect on SMA was measured.
Additional experiments determined the concentration-dependence of SKF-96365 inhibtion of SMA. These experiments were performed as described above except that various concentrations of SKF-96365 were added to the left atrial superfusate (about 10-65 μM).
In these experiments, a 2-APB model system was used to simulate abnormal automaticity. Specifically, superfused left atria were exposed to 0 or to 50 μM SKF-96365 for 10 min. Following this pre-incubation, muscles were titrated with increasing concentrations of 2-APB (0-30 μM) and the rate of SMA was measured about 10 min later in the absence of pacing.

## COc1ccc(CCCOC(Cn2ccnc2)c2ccc(OC)cc2)cc1 (stereo not drawn) [SKF-96365, 1-[β-(3-(4-Methoxyphenyl)propoxy)-4-methoxyphenethyl]-1H-imidazole hydrochloride]
Rat left atria [1]
  IC50: ~12 µM
Rat left atria [2]; 300 nM BayK 8644 + 20 μM 2-APB, SKF-96365 (10 μM), absence of pacing
  time to reversal of STA: 2 to 3 min
Rat left atria [2]; 300 nM BayK 8644 + 20 μM 2-APB, zatebradine 70 μM, ZD-7288 10-100 μM, SKF-96365 about 10-70 μM, hydrochloride
  effect on STA initiated by BayK 8644 and 2-APB: reverses STA
Rat left atria [2]; after STA reversal, 0.1 Hz pacing restored
  effect on normal excitation-contraction coupling: did not affect normal excitation-contraction coupling
Rat left atria [3]; 25 nM ATX II, 20 μM SKF-96365 for ~5 min, 1 Hz pacing, hydrochloride
  triggered activity after exposure to SKF-96365: shows no triggered activity; also recorded: shows no triggered events; also recorded: suppresses triggered activity
Rat left atria [3]; 25 nM ATX II, 1 Hz-paced, ~5 min at each concentration, hydrochloride
  effect on left atrial force of contraction / mechanical performance (titration): did not decrease the mechanical performance; also recorded: did not affect left atrial force of contraction
Rat left atria [3]; SKF-96365 20 μM (legend 20-25 μM) for ~10 min before 25 nM ATX II, recorded over 10-15 min, hydrochloride
  prevention of triggered activity by pre-treatment: prevents the appearance of triggered activity; also recorded: triggered activity does not occur
Rat left atria [3]; SKF-96365 added to superfusate of left atria undergoing ATX II triggered activity
  time to reversal of triggered activity: 2 to 5 min
Rat left atria [4]; ~40 μM SKF-96365, 300 nM BayK 8644 + 20 μM 2-APB
  time to restoration of normal patterns of excitation-contraction: 5 to 8 min
Rat left atria [4]; ~40 μM SKF-96365, hydrochloride
  effect on chaotic, fibrillation-like mechanical activity: restores normal patterns of excitation-contraction; also recorded: no longer contracted chaotically
Rat left atria [5]; 25 μM SKF-96365, 0.1 Hz pacing restored after SMA suppression
  effect on normal excitation-contraction coupling: did not affect normal excitation-contraction coupling
Rat left atria [5]; 25 μM SKF-96365, 2-APB-treated left atria, absence of pacing
  time to suppression of SMA: 2 to 3 min
Rat left atria [5]; 50 μM SKF-96365 for 10 min, then 2-APB 0-30 μM, measured ~10 min later without pacing, hydrochloride
  prevention of SMA by pre-treatment: prevents the appearance of SMA
Rat left atria [5]; Rattus norvegicus, read-out: IC50 for inhibition (reversal) of SMA
  IC50: ~15 µM
Rat left atria [5]; titration after appearance of SMA, absence of pacing
  effect on 2-APB-induced sporadic ectopic activity (SMA): suppressed SMA
Rat left atria [5]; various concentrations of SKF-96365 (about 10-65 μM)
  time to suppression of SMA: 2 to 3 min
